Results published in patent US5741811A, “Polythiophene anti-tumor agents” (Purdue Research Foundation, priority 1996, dated 1998).

Assays:
Assay in all cases: NCI human tumor cell line panel growth inhibition
Assay type in all cases: cell-based
[1] = tested on: SW-620 colon cancer cells; conditions: Homo sapiens, read-out: Log10 GI50 (converted)
Protocol: (§1) The first screen measures the cytotoxicity against a panel of sixty different human tumor cell lines. This assay provides data regarding the general cytotoxicity of an individual compound.
(§2) The length of a bar is indicative of differential cytotoxicity against a specific type of tumor cells or tumor panels.
(§3) The antitumor cytotoxicity of the thiophene compounds tested in the first two in vitro assays was measured by a microculture assay using either 3-(4,5-dimethylthiazol-2-yl)-2,5-diphenyltetrazolium bromide (MTT) or sulforhodamine B (SRB). [M. R. Boyd in "Principles and Practices of Oncology," V. T. DeVita, Jr., S. Hellman and S. A. Rosenberg (Eds.), Vol. 3, PPO Updates, Number 10, 1989.] This assay has an advantage over in vivo assay in that results are obtained within a week as opposed to several months. The assay was carried out in 96-well microtiter plates. The MTT assay is based on the production of a dark blue formazan product by dehydrogenase in the mitochondria of live tumor cells after exposure to drug for 6 days [M. C. Alley, D. A. Scudiero, A. Monks, M. L. Hursey, M. J. Czerwinski, D. L. Fine, B. J. Abbott, J. G. Mayo, R. H. Shoemaker and M. R. Boyd, Cancer Res., 48, 589, 1988.] Thus, only live cells are stained and can be measured at 570 nm. The SRB assay is based on the binding of the anionic group to the basic amino acid residues of cellular proteins after exposure of tumor cells to drug for 2 days [P. Skehan, R. Storeng, D. Scudiero, A. Monks, J. McMahon, D. Vistica, J. T. Warren, H. Bohesch, S. Kenney and M. R. Boyd, J. Nat. Cancer Inst., 82, 1107, 1990.] Thus, the total protein (viability) can be measured at 564 nm.

[2] = tested on: OVCAR-8 ovarian cancer cells; conditions: Homo sapiens, read-out: Log10 GI50 (converted)
Protocol: as §1, §2, §3

[3] = tested on: NCI-H522 lung cancer cells; conditions: read-out: Log10 GI50 (converted)
M-14 melanoma cells = conditions: M14, read-out: Log10 GI50 (converted)
HT29 colon cancer cells = conditions: Homo sapiens, HT-29, read-out: Log10 GI50 (converted)
UO-31 renal cancer cells = conditions: read-out: Log10 GI50 (converted)
[4] = tested on: IGROV-1 ovarian cancer cells; conditions: Homo sapiens, read-out: Log10 GI50 (converted)
[5] = tested on: RXF-393 renal cancer cells; conditions: Homo sapiens, read-out: Log10 GI50 (converted)
[6] = tested on: COLO-205 colon cancer cells; conditions: Homo sapiens; COLO-205, colon cancer; read-out: Log10 GI50 (converted)
SN12C renal cancer cells = conditions: read-out: Log10 GI50 (converted)
[7] = tested on: T-47D breast cancer cells; conditions: T47D, read-out: Log10 GI50 (converted)
Protocol: The assay was carried out in 96-well microtiter plates. The MTT assay is based on the production of a dark blue formazan product by dehydrogenase in the mitochondria of live tumor cells after exposure to drug for 6 days [M. C. […] The SRB assay is based on the binding of the anionic group to the basic amino acid residues of cellular proteins after exposure of tumor cells to drug for 2 days [P. Skehan, R. Storeng, D. Scudiero, A. Monks, J. McMahon, D. Vistica, J. T. Warren, H. Bohesch, S. Kenney and M. R. Boyd, J. Nat.

[8] = tested on: NCI-H226 lung cancer cells; conditions: Homo sapiens, read-out: Log10 GI50 (converted)
786-0 renal cancer cells = conditions: read-out: Log10 GI50 (converted)
MALME-3M melanoma cells = conditions: read-out: Log10 GI50 (converted)
[9] = tested on: NCI-H23 lung cancer cells; conditions: read-out: Log10 GI50 (converted)
U251 CNS cancer cells = conditions: Homo sapiens, U-251, read-out: Log10 GI50 (converted)
HOP-62 lung cancer cells = conditions: Homo sapiens, read-out: Log10 GI50 (converted)
SF-295 CNS cancer cells = conditions: read-out: Log10 GI50 (converted)
[10] = tested on: DU-145 prostate cancer cells; conditions: read-out: Log10 GI50 (converted)
Text: (§4) The cytotoxic activity of the present polythiophene compounds have been measured utilizing three different assays or screens. The first screen measures the cytotoxicity against a panel of sixty different human tumor cell lines. This assay provides data regarding the general cytotoxicity of an individual compound. In particular this type of assay is useful in identifying compounds which have enhanced cytotoxic activity against slow growing tumors as compared to faster growing tumor cells such as leukemia tumor cell lines. The identification of such compounds is critical since previously identified antitumor agents have low cytotoxic activity against slower growing tumors. […] The specificity of a cytotoxic compound for tumor cell lines relative to normal cells is an important characteristic of an effective antitumor agent.
as §2, §3

[11] = tested on: MDA-N breast cancer cells; conditions: read-out: Log10 GI50 (converted)
Text: as §4, §2, §3

[12] = tested on: MDA-MB-435 breast cancer cells; conditions: read-out: Log10 GI50 (converted)
Text: as §4, §2, §3

SK-MEL-28 melanoma cells = conditions: read-out: Log10 GI50 (converted)
Text: as §4, §2, §3

SK-MEL-5 melanoma cells = conditions: read-out: Log10 GI50 (converted)
Text: as §4, §2, §3

MCF7 breast cancer cells = conditions: read-out: Log10 GI50 (converted)
Text: as §4, §2, §3

[13] = tested on: HS 578T breast cancer cells; conditions: read-out: Log10 GI50 (converted)
Text: as §4, §2, §3

[14] = tested on: BT-549 breast cancer cells; conditions: read-out: Log10 GI50 (converted)
Text: as §4, §2, §3

[15] = tested on: MCF7/ADR-RES breast cancer cells; conditions: read-out: Log10 GI50 (converted)
Text: as §4, §2, §3

[16] = tested on: PC-3 prostate cancer cells; conditions: read-out: Log10 GI50 (converted)
Text: as §4, §2, §3

KM12 colon cancer cells = conditions: Homo sapiens, read-out: Log10 GI50 (converted)
Text: as §4, §2, §3

ACHN renal cancer cells = conditions: read-out: Log10 GI50 (converted)
[17] = tested on: HCC-2998 colon cancer cells; conditions: Homo sapiens, read-out: Log10 GI50 (converted)
[18] = tested on: NCI-H460 lung cancer cells; conditions: Homo sapiens, read-out: Log10 GI50 (converted)
TK-10 renal cancer cells = conditions: Homo sapiens, read-out: Log10 GI50 (converted)
[19] = tested on: HCT-15 colon cancer cells; conditions: Homo sapiens, read-out: Log10 GI50 (converted)

**Q.** Which results are given for `OCc1cc(-c2ccc(-c3cccs3)s2)sc1CO`?
**A.** GI50 [1]: 40.7 µM; GI50 [2]: 50.1 µM; GI50 [3]: 33.9 µM; GI50 (M-14 melanoma cells): 51.3 µM; GI50 (HT29 colon cancer cells): 18.6 µM; GI50 (UO-31 renal cancer cells): 64.6 µM; GI50 [4]: 0.229 µM; GI50 [5]: 8.71 µM; GI50 [6]: 5.89 µM; GI50 (SN12C renal cancer cells): 46.8 µM; GI50 [7]: 0.427 µM; GI50 [8]: 0.257 µM; GI50 (786-0 renal cancer cells): 52.5 µM; GI50 (MALME-3M melanoma cells): 29.5 µM; GI50 [9]: 38.9 µM; GI50 (U251 CNS cancer cells): 69.2 µM; GI50 (HOP-62 lung cancer cells): 20 µM; GI50 (SF-295 CNS cancer cells): 33.9 µM; GI50 [10]: 55 µM; GI50 [11]: 5.37 µM; GI50 [12]: 15.1 µM; GI50 (SK-MEL-28 melanoma cells): 39.8 µM; GI50 (SK-MEL-5 melanoma cells): > 10 µM; GI50 (MCF7 breast cancer cells): 0.178 µM; GI50 [13]: 52.5 µM; GI50 [14]: 83.2 µM; GI50 [15]: 57.5 µM; GI50 [16]: 49 µM; GI50 (KM12 colon cancer cells): 16.6 µM; GI50 (ACHN renal cancer cells): 56.2 µM; GI50 [17]: 0.316 µM; GI50 [18]: 5.62 µM; GI50 (TK-10 renal cancer cells): 20.9 µM; GI50 [19]: 28.2 µM
